Test results as given in publication PMC7274539, “The selective glucocorticoid receptor antagonist CORT125281 has tissue-specific activity” (The Journal of Endocrinology, 2020).
Like-named read-outs stand apart in the source and are kept apart here.

Columns and labels:
[1] = system: GR transcriptional activity; assay: Acute corticosterone exposure or basal conditions: RT-qPCR of GR target genes in tissues; assay type: in vivo, C57Bl/6J mice
Description: (§1) All studies involving animals were approved by the institutional ethics committee on animal care and experimentation at the Leiden University Medical Center. The 8-week old male C57Bl/6J mice (Charles River) were housed in ventilated cages with a 12 h light:12 h darkness regime and ad libitum access to food and water. In the acute corticosterone exposure experiments, mice received a synthetic chow diet (Research Diets, New Brunswick, NJ, USA) containing vehicle or CORT125281 (6, 20 or 60 mg/kg/day, Corcept Therapeutics, Menlo Park, CA, USA) for 6 days. […] Mice were treated daily with vehicle, 60 mg/kg mifepristone (Corcept Therapeutics) or 60 mg/kg CORT125281 (dissolved in PBS with 0.1% Tween 80 and 0.5% hydroxypropylmethylcellullose, Corcept Therapeutics) via oral gavage for 5 days, after which mice were killed by CO2 inhalation. Throughout the experiment, body weight was monitored and body composition was determined with EchoMRI™ (Frankfurt, Germany). After 5 days, blood was collected from the lateral tail vain in paraoxon-coated capillaries after a 6-h fast. Plasma triglyceride, total cholesterol, free fatty acid, glucose and insulin levels were determined using commercially available kits (Roche; Instruchemie, Delfzijl, Netherlands and Crystal Chem, Zaandam, Netherlands). Blood concentrations of the major leukocyte classes, that is, lymphocytes, monocytes and eosinophils, were determined in whole blood using an automatic veterinary hematology analysis (Sysmex XT-2000iV; Goffin Meyvis, Etten-Leur, the Netherlands).
(§2) In both acute and subchronic corticosterone experiments, relevant tissues (including quadriceps muscle, interscapular BAT, gonadal white adipose tissue (WAT), adrenals, spleen, thymus, pituitary and hippocampus) were collected to determine tissue weight and/or for further molecular analysis.
(§3) Total RNA was isolated from snap-frozen tissues using TriPure isolation reagent (Roche). After reverse transcription to cDNA (Promega), RT-qPCR was performed using IQ SYBR-Green supermix and MyIQ thermal cycler (Bio-RAD CFX96). Primers were tested for high efficiency (90–110%) and for amplification of a single PCR product. All primer sequences are listed in Supplementary Table 1 (see section on supplementary materials given at the end of this article), with the exception of Ncor1 and Ncor2 which were purchased from Qiagen. Fold change expression was calculated using the 2^−ΔΔ^CT method.

[2] = system: hypothalamus-pituitary-adrenal (HPA)-axis activity; assay: Basal and novelty stress-induced HPA-axis activity (ACTH, corticosterone, pituitary Pomc, adrenal weight); assay type: in vivo, C57Bl/6J mice
Description: as §1, §2
Novelty stress tests were performed in the morning (between 08:00–12:00 h) after 2 days of exposure to CORT125281. At t = 0, a blood sample was collected, after which mice were placed in a novel cage without bedding. After 10 min, a second blood sample was collected and mice were placed back in their original home cage.
For dual label in situ hybridization, frozen unfixed pituitaries were embedded in tissue-tek OCT (Sakura Finetek, Alphen aan den Rijn, Netherlands), sliced (12 µm) and collected on glass slides (Superfrost Plus, Thermo Fisher Scientific). Dual label in situ hybridization was performed using the QuantiGene ViewRNA ISH Tissue 2-Plex Assay (Thermo Fisher Scientific) and pictures were captured with a wide-field microscope (DM6B, Leica Microsystems). For 4-plex in situ hybridization, frozen, unfixed brain slices (12 µm) were collected on glass slides at bregma −0.772 mm (PVN) and −1.532 mm (hippocampus). 4-plex in situ hybridization was performed using the RNAScope fluorescent multiplex assay and RNAscope 4-plex ancillary kit (Advanced Cell Diagnostics, Newark, CA, USA) and Opal fluorophores 520, 570, 620 and 690 (PerkinElmer). Pictures were captured with a confocal microscope (SP8 WLL, Leica Microsystems). All pictures were analysed with ImageJ Software (NIH).

[3] = Quantification of serum and tissue CORT125281 concentration by LC-MS; assay type: in vivo, C57Bl/6J mice; conditions: male, C57Bl/6J, mouse, oral, 60 mg/kg/day for 6 days, mice
Description: as §1
Compound levels were assessed against standard curves for CORT125281, ranging from 0.05–20 µM in each tissue. Tissues were weighed and water was added at three-fold the weight of each individual sample before homogenising. Internal standard (90 µL of 1 µM leucine enkephalin in acetonitrile) was added to all samples, standard curves and quality control spikes of CORT125281. After centrifugation, a fixed volume of supernatant was removed and pellets were dissolved in water. The samples were then analysed by LC-MS utilising a QTRAP 5500 mass spectrometer (Sciex, Warrington, UK), UPLC (Agilent) instrument, equipped with a C18 Cortecs UPLC analytical column (2.1 × 30 mm, […]). […] The gradient started with a mobile phase composition of 5% B which was held for 0.1 min. The percentage of B was then linearly ramped to 95% over 0.1 to 1.2 min and then held constant up to 1.3 min. […] The mass spectrometer was set to operate in negative ion mode. The ion source temperature was 650°C, the ion spray voltage was −4000 V, gases 1, 2 and curtain gas were 30 V, 60 V and 35 V, respectively, and the entrance and collisition exit potential were −10 V and −13 V. The collision energy and declustering potential used for the multiple reaction monitoring (MRM) transitions of CORT125281 were −28 V and −60 V, the Q1 and Q3 masses were 588.649 Da and 248.800 Da, while the collision energy and declustering potential for the internal standard were −40 V and 0 V and the Q1 and Q3 masses 554.2 Da and 235.9 Da.

[4] = system: GR transcriptional activity; assay: Subchronic corticosterone exposure: RT-qPCR of GR and insulin target genes in tissues; assay type: in vivo, C57Bl/6J mice; conditions: corticosterone pellet 5 days, 60 mg/kg/day oral gavage
Description: as §1, §2, §3

[5] = system: HPA-axis activity; set-up: method as in Kroon et al. 2018; conditions: ref Kroon et al. 2018; cited from earlier work
[6] = 60 mg/kg/day, corticosterone 1.5 mg/kg, liver
[7] = 60 mg/kg/day, without corticosterone exposure

## Cn1ncc(S(=O)(=O)N2CC[C@H]3Cc4c(cnn4-c4ccc(F)cc4)C[C@]3(C(=O)c3cc(C(F)(F)F)ccn3)C2)n1 [CORT125281]
[1]; 60 mg/kg/day via food 6 days, corticosterone 1.5 mg/kg s.c. 1 h before killing, liver
  corticosterone-induced mRNA of GR target genes in liver: complete blockade
[1]; 60 mg/kg/day via food 6 days, corticosterone 1.5 mg/kg, BAT
  corticosterone-induced GR target genes in BAT: inhibition of only a subset of corticosterone-induced genes
[1]; 60 mg/kg/day via food 6 days, corticosterone 1.5 mg/kg, WAT
  corticosterone-induced GR target genes in WAT: no effects
[1]; 60 mg/kg/day via food 6 days, corticosterone 1.5 mg/kg, hippocampus
  corticosterone-induced GR target genes in hippocampus: no effects
[1]; 60 mg/kg/day via food 6 days, corticosterone 1.5 mg/kg, quadriceps muscle
  corticosterone-induced GR target genes in muscle: inhibition of only a subset of corticosterone-induced genes
[1]; [6]
  corticosterone induction of G6pc in liver: a similar pattern was observed
  corticosterone induction of Pepck in liver: blocked the induction
[1]; 60 mg/kg/day, corticosterone 1.5 mg/kg, muscle
  corticosterone induction of Murf1 in muscle: completely blocked
[1]; 60 mg/kg/day, intact animals without prior corticosterone exposure
  mRNA levels of Gilz and G6p in liver: inhibited mRNA levels
[1]; [7]
  Cd36 expression in BAT: upregulated
  GR target gene expression in WAT: did not affect
  GR target gene expression in muscle: did not affect
[1]; 60 mg/kg/day, without corticosterone exposure, to a very modest extent
  expression of Sgk1 and Mt2a in hippocampus: downregulated
[1]; 6-20 mg/kg/day doses, BAT
  antagonistic actions on corticosterone-induced genes in BAT: completely lost
[1]; 6 and 20 mg/kg/day, solvent injection
  Mt2a expression in liver of solvent-injected mice: inhibited
[1]; lower doses 6 and 20 mg/kg/day, 6 days, corticosterone 1 h before tissue collection
  corticosterone-induced GR transcriptional activity of Fkbp5, Gilz, Sgk1 and Mt2a in liver: partially inhibited
[1]; lower doses 6 and 20 mg/kg/day, WAT
  GR transcriptional activity in WAT: did not inhibit
[1]; via food 6 days, liver
  dose required to attenuate corticosterone-induced expression of Fkbp5 and Gilz in liver: 20 mg/kg/day
  dose sufficient to attenuate corticosterone-induced expression of Sgk1 and Mt2a in liver: 6 mg/kg/day
[2]; 60 mg/kg/day
  adrenal weights: did not alter
  peak and trough corticosterone levels: did not alter
  peak novelty stress-induced corticosterone levels: slightly attenuated
[2]; 60 mg/kg/day, novelty stress
  slope of corticosterone during the recovery phase (t = 30 to 120 min): unaltered
[2]; 6-20 mg/kg/day
  GR (Nr3c1) mRNA expression in the anterior pituitary: increased
  expression of pro-opiomelanocortin (Pomc) in the anterior pituitary: unaltered
  weight of adrenals: unaltered
[2]; 6-20 mg/kg/day, 08:00 h and 18:00 h
  basal peak or trough corticosterone levels: did not alter
[2]; 6 and 20 mg/kg/day vs vehicle, all measured time points, day 2
  corticosterone levels after novelty stress: similar
[2]; 6 and 20 mg/kg/day, 18:00 on day 4
  circulating levels of ACTH: unchanged
[3]; BAT (brown adipose tissue) relative to plasma, read-out: tissue to plasma ratio, BAT
  Kp at 6 days: 19.1
[3]; BAT (brown adipose tissue), BAT, read-out: CORT125281 level, BAT
  concentration at 6 days: 4720 ng/g
[3]; WAT (white adipose tissue) relative to plasma, read-out: tissue to plasma ratio, WAT
  Kp at 6 days: 46.7
[3]; brain (neocortex) relative to plasma, neocortex, read-out: tissue to plasma ratio, brain
  Kp at 6 days: 1.8
[3]; gonadal WAT (white adipose tissue), gonadal WAT, read-out: CORT125281 level, WAT
  concentration at 6 days: 12500 ng/g
[3]; liver relative to plasma, read-out: tissue to plasma ratio, liver
  Kp at 6 days: 8
[3]; brain neocortex, read-out: CORT125281 level, brain
  concentration at 6 days: 542 ng/g
[3]; liver, read-out: CORT125281 level, liver
  concentration at 6 days: 2040 ng/g
[3]; plasma, read-out: CORT125281 level, plasma
  concentration at 6 days: 419 ng/g
[4]
  expression of insulin target genes G6p and Pepck in liver, Glut4 and Lpl in WAT, Glut4 and Gsk3b in muscle: did not affect
[4]; liver, muscle, BAT, WAT, hippocampus
  corticosterone-induced expression of GR target genes (Fkbp5, Gilz, Sgk1, Mt2a): did not prevent
[5]
  diurnal corticosterone rhythm flattened by high-fat diet: restored
